Data set [1] has as its system Pa03C. The experiment in a line: Monolayer cytotoxicity under hypoxia (alamarBlue). Format: cell-based. The following applies: Homo sapiens, N = 3, read-out: LC50 (the source's name). From the text:
(§1) To determine target selectivity, analogs of APX3330, APX2009 and APX2014, and an analog of SLC-0111, FC12-531A, were used.
(In general: Alamar Blue is a resazurin reagent that responds to reducing activity.)

The test system of data set [2] is Panc10.05. The data set is described as follows: Monolayer cytotoxicity under hypoxia (alamarBlue). The class given is cell-based. Particulars: Homo sapiens, Panc1005, Panc10.05, N = 3, read-out: LC50 (the source's name).
Description: as §1

Data set [3] has as its system HCT-116 colon cancer cells. The experiment in a line: Killing of colon cancer cells by APX3330 combined with CPI-613 (Example 4). Format: cell-based, human. Particulars: 0.2, 0.8, 1.6, 3.1, 6.3 μM APX3330 combined with 100 and 75 μM CPI-613. The method, then:
Standard 3D co-culture assays as described in Example 2 were used to evaluate the cytotoxicity of the combination on tumor cells as well as cancer-associated fibroblasts.
As shown in FIGS. 15A-15C, there was greater than 50% killing of HCT-116 colon cancer cells using 0.2, 0.8, 1.6, 3.1, 6.3 μM APX3330 when combined with 100 and 75 μM CPI-613.

In data set [4] the test system is human carcinoma colon cell line HCT-116. The data set is described as follows: Alamar blue cytotoxicity combination assay (CalcuSyn). The class given is cell-based. The method, then: HTC-116 (Yunhua Liu) was seeded in a 96-well tissue culture plate at 2000 cells/well in DMEM+10% FBS and grown overnight at 37° C., 5% CO2. Drug Media DMEM+5% FBS was added at dosages of APX3330 (Apexian) in a 5-point spread from 75 uM to 6.3 uM and spiked with CPI-613 (Apexbio Technology) at 75 uM, or 50 uM, or alone for single agent. Cells were incubated for 72 hours at 37° C., 5% CO2. Media was exchanged with DMEM+5% FBS+10% Alamar blue fluorescent cell viability indicator (INVITROGEN™) and incubated 4 hours at 37° C., 5% CO2 and then read on a fluorescent reader (SYNERGY™ H4 BioTek). […] depicts Chou-Talalay Index (CI) of dose combinations (CalcuSyn). FIG. 32E depicts synergistic drug combinations (CalcuSyn) of APX3330 spiked with 50 uM CPI-613 or 75 uM CPI-613. […] Data shown is the average of 3 separate cytotoxicity assays; each assay normalized to media only control.
HTC-116 (Yunhua Liu) was seeded in a 96-well tissue culture plate at 2000 cells/well in DMEM+10% FBS and grown overnight at 37° C., 5% CO2. Drug Media DMEM+5% FBS was added at dosages of APX3330 (Apexian) from 100 uM to 0.4 uM in a 10-point spread and spiked with CPI-613 (Apexbio Technology) at 100 uM, or 75 uM, or alone for single agent. Cells were incubated for 72 hours at 37° C., 5% CO2. Media was exchanged with DMEM+5% FBS+10% Alamar blue fluorescent cell viability indicator (INVITROGEN™) and incubated 4 hours at 37° C., 5% CO2 and then read on a fluorescent reader (SYNERGY™ H4 BioTek). […] FIG. 33D depicts Chou-Talalay Index (CI) of dose combinations (CalcuSyn). FIG. 33E depicts synergistic drug combinations (CalcuSyn) of APX3330 spiked with 100 uM CPI-613 or 75 uM CPI-613. […] Data shown is the average of 3 separate cytotoxicity assays; each assay normalized to media only control.
HTC-116 (Yunhua Liu) was seeded in a 96-well tissue culture plate at 2000 cells/well in DMEM+10% FBS and grown overnight at 37° C., 5% CO2. Drug Media DMEM+5% FBS was added at dosages of APX2014 (Apexian) in a 5-point spread from 25 uM to 1.6 uM and spiked with CPI-613 (Apexbio Technology) at 75 uM, or 50 uM, or alone for single agent. Cells were incubated for 72 hours at 37° C., 5% CO2. Media was exchanged with DMEM+5% FBS+10% Alamar blue fluorescent cell viability indicator (INVITROGEN™) and incubated 4 hours at 37° C., 5% CO2 and then read on a fluorescent reader (SYNERGY™ H4 BioTek). […] FIG. 34D depicts Chou-Talalay Index (CI) of dose combinations (CalcuSyn). FIG. 34E depicts synergistic drug combinations (CalcuSyn) of APX2014 spiked with 50 uM CPI-613 or 75 uM CPI-613. Drug combination synergy could not be ascertained at APX2014 dosages when spiked with 50 uM CPI-613. […] Data shown is the average of 3 separate cytotoxicity assays; each assay normalized to media only control.
HTC-116 (Yunhua Liu) was seeded in a 96-well tissue culture plate at 2000 cells/well in DMEM+10% FBS and grown overnight at 37° C., 5% CO2. Drug Media DMEM+5% FBS was added at dosages of APX3330 (Apexian) from 100 uM to 0.4 uM in a 10-point spread and spiked with CB-839 (Sigma-Aldrich) at 1000 nM, or 500 nM, or alone for single agent. Cells were incubated for 72 hours at 37° C., 5% CO2. Media was exchanged with DMEM+5% FBS+10% Alamar blue fluorescent cell viability indicator (INVITROGEN™) and incubated 4 hours at 37° C., 5% CO2 and then read on a fluorescent reader (SYNERGY™ H4 BioTek). FIG. 35A depicts APX3330 and CB-839 single agent effects. FIG. 35B depicts APX3330 and CB-839 synergistic combo effects. […] FIG. 35E depicts synergistic drug combinations (CalcuSyn) of APX3330 spiked with 1000 nM CB-839 or 500 nM CB-839 (5-pt only). […] Data shown is the average of 3 separate cytotoxicity assays; each assay normalized to media only control.

For data set [5], the system named is 10.05 cells. The experiment in a line: Intracellular pH assay (pHrodo Red AM) in hypoxic 10.05 cells. Particulars: 0.2% O2 48 hrs; up to 50 μM APX3330, 100 μM SLC-0111; 8 APX2009, 5 μM APX2014. Format: cell-based, human. The text has this:
Therefore, the APX3330 analogs, APX2009 and APX2014, were used to determine whether APE1/Ref-1 redox inhibition alone can shift intracellular pH in hypoxic PDAC cells given a sufficiently potent inhibitor.

Data set [6] deals with murine KPC cells. The experiment in a line: Alamar blue proliferation-based assay. Format: cell-based. The following applies: 3 days incubation.
Data set [7] relates to Pa03C and Panc10.05 tumor cells. The data set is described as follows: 3D spheroid / co-culture model of pancreatic cancer (both patient lines).
Description: Pa03C cells were plated into 3D cultures alone or with CAF19 cells.
Pa03C and Panc10.05 tumor cells were grown in 3D cultures in the presence of CAFs. Spheroids were treated with either single agents, vehicle (DMSO) or combination of targeted agents on days 4 and 8 (black arrows), and the intensity of tumor (red) and CAF (green) were quantified as described in Example 7 every 3-4 days in culture.

This is an account of results in US12350247B2, “Use of APE1/Ref-1 inhibitors for treatment of retinal diseases” (Indiana University Research and Technology Corporation, priority 2017, dated 2025).

As to `CCCCCCCCC/C(=C\C1=C(C)C(=O)C(OC)=C(OC)C1=O)C(=O)O` [APX3330], the values for the CC50 in data set [1] and in data set [2] were 50.2 µM and 40.3 µM, respectively. Also, in data set [3], the “killing of HCT-116 colon cancer cells” value is “greater than 50%”. The “drug combination synergy (Chou-Talalay, CalcuSyn)” value in data set [4] (APX3330 75 uM and 50 uM spiked with 50 uM CPI-613, 5-point spread) is given as “synergy was observed”; in data set [4] (APX3330 100 uM-12.5 uM spiked with 75 uM CPI-613, 10-point spread), “Synergy was observed”; in data set [4] (APX3330 100 uM-25 uM spiked with 1000 nM CB-839) it was “synergy was observed”; in data set [4] (APX3330 100 uM-50 uM spiked with 500 nM CB-839), “Synergy was observed”; in data set [4] (all APX3330 dosages (100 uM to 0.4 uM) spiked with 100 uM CPI-613, 10-point spread), “synergy was observed”; in data set [4] (all but one APX3330 dosage (6.3 uM), spiked with 75 uM CPI-613, 5-point spread) it was “Synergy was observed”. Also, the “effect on intracellular pH as single agent” value in data set [5] is listed as “did not affect”. Further, in data set [6], the “cytotoxicity in combination with Napabucasin” value is “enhancement of Napa-induced cytotoxicity”. Moreover, the “tumor cell growth in combination with SLC-0111” value in data set [7] (3D co-cultures with CAFs, APX3330 at 50 μM, APX2009 at 10 μM, APX2014 at 0.6 μM) was “significantly attenuated tumor cell growth”. The “tumor killing in combination with napabucasin” value in data set [7] (3D spheroid model (tumor and CAF)) is on record as “synergistic tumor killing effect”. In addition, the “single agent efficacy on 3D spheroid growth” value in data set [7] (treated on days 4 and 8, FIG. 17) is reported as “reduced cell growth, cell proliferation”.
